Measurements as given in PMC10368370, “Development of o-aminobenzamide salt derivatives for improving water solubility and anti-undifferentiated gastric cancer” (Frontiers in Pharmacology, 2023).
“Also recorded” adds a separate entry of the source.

How the values were obtained:
MDA-MB-468 = test: MTT cytotoxicity / anti-proliferation assay; assay type: cell-based; conditions: MDA-MB-468, MTT, 72 h; read-out: IC50, cancer cell viability
HuH7 = test: MTT cytotoxicity / anti-proliferation assay; assay type: cell-based; conditions: 72 h, read-out: IC50, cancer cell viability
HCT-116 = test: MTT cytotoxicity / anti-proliferation assay; assay type: cell-based; conditions: HCT-116, MTT, 72 h; read-out: IC50, cancer cell viability
HCC-1806 = test: MTT cytotoxicity / anti-proliferation assay; assay type: cell-based; conditions: HCC-1806, MTT, 72 h; read-out: IC50, cancer cell viability
MCF-7 = test: MTT cytotoxicity / anti-proliferation assay; assay type: cell-based; conditions: MCF-7, MTT, 72 h; read-out: IC50, cancer cell viability
HCC-1937 = test: MTT cytotoxicity / anti-proliferation assay; assay type: cell-based; conditions: HCC-1937, MTT, 72 h; read-out: IC50, cancer cell viability
MDA-MB-231 = test: MTT cytotoxicity / anti-proliferation assay; assay type: cell-based; conditions: MDA-MB-231, MTT, 72 h; read-out: IC50, cancer cell viability
[1] = Solubility in aqueous solution (pure water, normal saline); assay type: physicochemical
[2] = Screening of F8 related organic salts (crystallinity, hygroscopicity, solubility, stability, irritability); assay type: physicochemical; conditions: salt screening
Excerpt: The selection of salt form is a key step to the success of drug development, which requires a well-designed screening strategy to find the salt form that meets the target performance. Although there are many kinds of counter ions, the commonly used ones are very limited.

Pharmacokinetic study = assay type: in vivo, SD rats
Description: 7–8-week Male SD rats weighing 180–220 g were allowed for this experiment. The rats were fasted 12 h except for water. The solution was administered to rats by intravenous injection of 10% ethanol +10% solutol as solvent and intragastric injection of 5% castor oil +5% solutol as solvent. The dose concentration was 8 mg/mL for intravenous injection and 10 mg/mL for gavage.
Twelve male SD rats were divided into 4 groups with 3 rats in each group. Group 1 was F8-intravenous injection group, the dose was 20 mg/kg; Group 2 was F8- intragastric administration group, the dose was 100 mg/kg; Group 3 was F8·2HCl-intragastric administration group, the dose was 100 mg/kg. Blank blood was collected before administration, and blood was collected at predetermined time points after administration:
Intravenous injection group: before administration, 2 min, 5 min, 15 min, 30 min, 1 h, 2 h, 4 h, 8 h, 12 h, 24 h. Intragastric administration group: Before administration, 5 min, 15 min, 30 min, 1 h, 2 h, 4 h, 6 h, 8 h, 12 h, 24 h. About 0.5 mL of blood was collected and placed in an EDTA-K2 tube at […]. The plasma was centrifuged and stored at −80°C. The samples were detected by liquid-mass spectrometry analysis system. The chromatographic column used was ODS-C18 (4.6 × 50 mm, 3 µm). The chromatographic conditions were as follows: Mobile phase A is aqueous phase, […] (including 0.1% formic acid); Mobile phase B is organic, 95% acetonitrile (containing 0.1% formic acid). Flow rate of 0.4 mL/min, column temperature: room temperature, according to the drug plasma concentration data, calculated pharmacokinetic parameters using DAS 2.0 software.
After oral administration, drugs need to go through four stages, namely, absorption, distribution, metabolism and excretion. However, the changes in solubility of drugs after salting only affect the absorption stage. Since absorption is accompanied by a dissolution process, the water solubility and dissolution rate of drugs are the main factors that determine their absorption, and then affect their oral bioavailability ([Elder et al., 2013]). Under the stimulation of cell activity and increased solubility, pharmacokinetic experiments were carried out to understand the drug exposure and provide a basis for further druggability of compound F8. In this study, compound F8 and F8·2HCl were administered in two different ways: tail vein injection (20 mg/kg) and gavage (100 mg/kg), and pharmacokinetic parameters were measured in Sprague-Dawley (SD) rats (Figures 3, 4).

HGC-27 xenograft = test: HGC-27 tumor xenograft model; assay type: in vivo, BALB/c nude mice; conditions: p.o., bid; for tumor growth inhibition (TGI): 14 days, HGC-27 xenograft
Description: 4-week-old male BALB/c nude mice weighing 18g–22 g were injected with 100 μL HGC-27 cells (2 × 10^6 cells) to establish an undifferentiated gastric cancer model.
(A) Tumor volumes plotted as mean ± SEM. (B) Mice weight curve during treatment plotted as mean ± SD. (C,D) Tumor weight and size on the final day.

CDK2 = test: Immunohistochemical analysis of HGC-27 xenograft tumor; assay type: in vivo; conditions: vs blank group
Description: (§1) Then, immunohistochemical analysis was performed on the tumor of the HGC-27 xenograft tumor model. It is known that cyclin-dependent kinase 2 (CDK2) and CDK inhibitor p21 play pivotal parts in cell cycle regulation, while both downregulation of CDK2 or upregulation of p21 lead to cell cycle arrest ([[…] et al., 2019]; [Sturmlechner et al., 2021]). […] Ki-67 is an antigen associated with proliferating cells, which is usually positively correlated with tumor growth rate ([Menon et al., 2019]). […] Cleaved Caspase-3 is a pro-apoptotic protein, the higher the expression of this protein, the stronger […] ([Wei et al., 2020]). […] E-cadherin which is a type of cell surface transmembrane glycoprotein has an important influence on the cell-cell adhesion function. […] Representative tumor images of IHC analysis stained by CDK2, Cleaved Caspase-3, E-cadherin, KI-67 and p21. Magnification: × 400.

Cleaved Caspase-3 = test: as above; assay type: in vivo; conditions: vs blank group
Description: as §1

E-cadherin = test: as above; assay type: in vivo; conditions: vs blank group
Description: as §1

Ki-67 = test: as above; assay type: in vivo; conditions: vs blank group
Description: as §1

p21 = test: as above; assay type: in vivo; conditions: vs blank group
Description: as §1

[3] = SD rats, 100 mg/kg, route ip (methods: intragastric), 100 mg/kg
[4] = SD rats, oral administration 100 mg/kg, 100 mg/kg

SMILES: O=C(NCc1ccc(NC(=O)c2cc(F)ccc2N2CCCC2)cc1)OCc1cccnc1 [F8·2HCl]
- IC50 (MDA-MB-468): 1.42 ± 0.19 µM
- IC50 (HuH7): 10.9 ± 0.97 µM
- IC50 (HCT-116): 4.02 ± 0.28 µM
- IC50 (HCC-1806): 16.2 ± 0.41 µM
- IC50 (MCF-7): 47.69 ± 0.15 µM
- IC50 (HCC-1937): 48.81 ± 0.18 µM
- IC50 (MDA-MB-231): 47 ± 0.62 µM
- water solubility relative to compound F8 ([1]; F8·2HCl vs F8): more than 50 times
- solubility in normal saline ([1]; normal saline, compared with pure water): not much different from pure water
- Solubility in aqueous solution ([1]; pure water): more than 50 mg/mL
- Crystalline [2]: crystallization
- Hygroscopic [2]: Almost no moisture absorption
- Stability [2]: remain stable under high temperature (80°C), acid, alkaline, oxidation and reduction conditions; also recorded: Keep stable in extreme environment
- Solubility ([2]; water): Soluble
- AUC (0-∞) (Pharmacokinetic study; [3]): 1770 ng·h/mL
- Cmax (Pharmacokinetic study; [3]): 580 ng/mL
- T1/2 (Pharmacokinetic study; [3]): 3.63 h
- Tmax (Pharmacokinetic study; [3]): 1.42 h
- bioavailability (Pharmacokinetic study; SD rats, oral 100 mg/kg vs iv 20 mg/kg): 5.06%
- area under the concentration-time curve (AUC0-t) (Pharmacokinetic study; [4]): 1770 ng·h/mL
- peak plasma concentration (Pharmacokinetic study; [4]): 0.58 µg/mL
- half-life extension relative to F8 (Pharmacokinetic study; male, Sprague-Dawley, rat, plasma, po, 100 mg/kg, same oral dose, F8·2HCl vs F8): 1 h
- increase of Tmax relative to F8 (Pharmacokinetic study; same oral dose, F8·2HCl vs F8): ~10 times
- tumor growth inhibition (TGI) (HGC-27 xenograft; 37.5 mg/kg): 60.6%
- tumor growth inhibition (TGI) (HGC-27 xenograft; 75 mg/kg): 70.1%
- body weight of mice vs control group (HGC-27 xenograft; 37.5 and 75 mg/kg, during treatment): no significant weight loss
- tumor weight vs control group (HGC-27 xenograft; 37.5 and 75 mg/kg, final day): significant decrease in tumor weight
- expression of CDK2 (IHC) (CDK2): declined dose-dependently; also recorded: significantly decreased
- expression of Cleaved Caspase-3 protein (IHC) (Cleaved Caspase-3): significantly upregulated; also recorded: increased
- expression level of E-cadherin protein (IHC) (E-cadherin): increase the expression level; also recorded: increased
- expression of Ki-67 protein (IHC) (Ki-67): significantly decreased
- level of p21 protein (IHC) (p21): significantly upregulated
